# Reference: ChEMBL document CHEMBL1140276, “Synthesis of 4(5)-phenylimidazole-based analogues of sphingosine-1-phosphate and FTY720: discovery of potent S1P1 receptor agonists” (Bioorg Med Chem Lett, 2005)
# Biological target: T1, Sphingosine 1-phosphate receptor 2 (Homo sapiens, UniProt O95136)
# Experiment: Maximal efficacy against sphingosine 1-phosphate receptor 2 determined by a [c-35S]-GTP binding assay;
# T1 sequence (O95136 whole entry): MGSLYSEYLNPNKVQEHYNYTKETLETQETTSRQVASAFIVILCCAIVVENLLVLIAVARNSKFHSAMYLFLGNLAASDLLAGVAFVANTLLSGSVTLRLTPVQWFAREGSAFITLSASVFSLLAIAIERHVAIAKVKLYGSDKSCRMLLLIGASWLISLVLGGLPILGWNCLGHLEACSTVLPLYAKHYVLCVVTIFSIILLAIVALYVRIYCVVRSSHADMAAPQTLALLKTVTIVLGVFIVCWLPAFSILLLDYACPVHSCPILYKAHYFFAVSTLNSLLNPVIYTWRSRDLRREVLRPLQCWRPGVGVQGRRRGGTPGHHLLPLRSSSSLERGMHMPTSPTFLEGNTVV
row,SMILES,Emax
1,CCCCCCCCc1ccc(-c2c[nH]c([C@@H](N)COP(=O)(O)O)n2)cc1,0

# Biological target: T2, Sphingosine 1-phosphate receptor 5 (Homo sapiens, UniProt Q9H228)
# T2 sequence (Q9H228 whole entry): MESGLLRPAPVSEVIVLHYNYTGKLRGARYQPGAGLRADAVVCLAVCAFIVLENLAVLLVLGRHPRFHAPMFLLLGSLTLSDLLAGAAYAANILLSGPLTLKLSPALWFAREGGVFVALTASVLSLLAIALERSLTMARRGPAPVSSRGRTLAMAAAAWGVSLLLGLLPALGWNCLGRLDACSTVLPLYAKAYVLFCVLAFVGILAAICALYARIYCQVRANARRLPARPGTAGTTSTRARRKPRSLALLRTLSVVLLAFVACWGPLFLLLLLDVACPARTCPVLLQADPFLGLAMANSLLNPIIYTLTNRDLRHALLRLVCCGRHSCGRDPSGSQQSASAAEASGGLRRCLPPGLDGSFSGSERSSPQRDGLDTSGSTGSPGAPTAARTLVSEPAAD
# Experiment: Effective concentration against sphingosine 1-phosphate receptor 5 determined by a [c-35S]-GTP binding assay
row,SMILES,EC50
1,CCCCCCCCc1ccc(-c2c[nH]c([C@@H](N)COP(O)(O)=S)n2)cc1,0.029 µM
2,CCCCCCCCc1ccc(-c2c[nH]c(C(C)(N)COP(O)(O)=S)n2)cc1 (stereo not drawn),0.051 µM
3,CCCCCCCCc1ccc(-c2c[nH]c([C@H](N)CO)n2)cc1,0.86 µM
4,CCCCCCCCc1ccc(-c2c[nH]c(C(N)(CO)CO)n2)cc1,6.7 µM
5,CCCCCCCCc1ccc(-c2c[nH]c(C(N)(CO)COP(O)(O)=S)n2)cc1 (stereo not drawn),0.016 µM
6,CCCCCCCCc1ccc(-c2c[nH]c([C@@H](N)COP(=O)(O)O)n2)cc1,0.012 µM

# Biological target: T3, Sphingosine 1-phosphate receptor 1 (Homo sapiens, UniProt P21453)
# T3 sequence (P21453 whole entry): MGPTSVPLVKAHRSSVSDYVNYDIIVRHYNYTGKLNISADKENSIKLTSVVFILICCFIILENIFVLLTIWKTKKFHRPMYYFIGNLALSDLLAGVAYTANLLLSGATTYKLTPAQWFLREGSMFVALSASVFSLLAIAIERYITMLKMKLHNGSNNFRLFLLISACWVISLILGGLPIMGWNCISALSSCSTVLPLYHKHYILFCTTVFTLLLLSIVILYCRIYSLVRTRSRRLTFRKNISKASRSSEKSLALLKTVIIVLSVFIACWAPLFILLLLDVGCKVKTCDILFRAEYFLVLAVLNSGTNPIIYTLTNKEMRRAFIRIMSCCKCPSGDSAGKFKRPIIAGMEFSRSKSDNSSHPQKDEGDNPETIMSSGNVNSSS
# Experiment: Effective concentration against sphingosine-1-phosphate receptor 1 determined by a [c-35S]-GTP binding assay
row,SMILES,EC50
1,CCCCCCCCc1ccc(-c2c[nH]c([C@@H](N)COP(O)(O)=S)n2)cc1,0.0064 µM
2,CCCCCCCCc1ccc(-c2c[nH]c(C(C)(N)COP(O)(O)=S)n2)cc1 (stereo not drawn),0.0098 µM
3,CCCCCCCCc1ccc(-c2c[nH]c([C@H](N)CO)n2)cc1,2.7 µM
4,CCCCCCCCc1ccc(-c2c[nH]c(C(N)(CO)CO)n2)cc1,5.1 µM
5,CCCCCCCCc1ccc(-c2c[nH]c(C(N)(CO)COP(O)(O)=S)n2)cc1 (stereo not drawn),0.15 µM
6,CCCCCCCCc1ccc(-c2c[nH]c([C@@H](N)COP(=O)(O)O)n2)cc1,0.004 µM

# Biological target: T4, Sphingosine 1-phosphate receptor 3 (Homo sapiens, UniProt Q99500)
# T4 sequence (Q99500 whole entry): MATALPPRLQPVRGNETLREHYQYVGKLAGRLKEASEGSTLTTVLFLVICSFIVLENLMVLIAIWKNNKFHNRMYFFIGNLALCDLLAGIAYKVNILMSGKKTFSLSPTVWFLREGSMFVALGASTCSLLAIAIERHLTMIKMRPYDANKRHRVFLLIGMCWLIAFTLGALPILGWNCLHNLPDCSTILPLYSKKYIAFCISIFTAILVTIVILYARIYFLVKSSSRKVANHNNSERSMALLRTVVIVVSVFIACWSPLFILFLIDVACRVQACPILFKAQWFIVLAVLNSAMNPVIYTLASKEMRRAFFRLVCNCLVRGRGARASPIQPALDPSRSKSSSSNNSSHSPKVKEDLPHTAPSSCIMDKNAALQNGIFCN
# Experiment: Effective concentration against sphingosine 1-phosphate receptor 3 determined by a [c-35S]-GTP binding assay
row,SMILES,EC50
1,CCCCCCCCc1ccc(-c2c[nH]c([C@@H](N)COP(O)(O)=S)n2)cc1,0.69 µM
2,CCCCCCCCc1ccc(-c2c[nH]c(C(C)(N)COP(O)(O)=S)n2)cc1 (stereo not drawn),1.6 µM
3,CCCCCCCCc1ccc(-c2c[nH]c([C@H](N)CO)n2)cc1,2.7 µM
4,CCCCCCCCc1ccc(-c2c[nH]c(C(N)(CO)COP(O)(O)=S)n2)cc1 (stereo not drawn),0.79 µM
5,CCCCCCCCc1ccc(-c2c[nH]c([C@@H](N)COP(=O)(O)O)n2)cc1,0.33 µM

# Biological target: T5, Sphingosine 1-phosphate receptor 4 (Homo sapiens) (UniProt O95977)
# T5 sequence (whole entry): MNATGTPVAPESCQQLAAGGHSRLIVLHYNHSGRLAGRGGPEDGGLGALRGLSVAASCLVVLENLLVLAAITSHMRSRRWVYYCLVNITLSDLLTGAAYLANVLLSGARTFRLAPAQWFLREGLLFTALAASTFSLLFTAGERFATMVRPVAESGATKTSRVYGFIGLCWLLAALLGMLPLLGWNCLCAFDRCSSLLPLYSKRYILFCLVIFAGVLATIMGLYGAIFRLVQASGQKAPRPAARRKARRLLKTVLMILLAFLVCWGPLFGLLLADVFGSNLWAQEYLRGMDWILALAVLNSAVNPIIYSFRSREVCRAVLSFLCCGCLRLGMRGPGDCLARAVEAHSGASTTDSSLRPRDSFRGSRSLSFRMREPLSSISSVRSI
# Experiment: Maximal efficacy against sphingosine 1-phosphate receptor 4 determined by a [c-35S]-GTP binding assay
row,SMILES,Emax
1,CCCCCCCCc1ccc(-c2c[nH]c([C@@H](N)COP(O)(O)=S)n2)cc1,0.82
2,CCCCCCCCc1ccc(-c2c[nH]c(C(C)(N)COP(O)(O)=S)n2)cc1 (stereo not drawn),0.68
3,CCCCCCCCc1ccc(-c2c[nH]c([C@H](N)CO)n2)cc1,0.9
4,CCCCCCCCc1ccc(-c2c[nH]c(C(N)(CO)CO)n2)cc1,0.79
5,CCCCCCCCc1ccc(-c2c[nH]c(C(N)(CO)COP(O)(O)=S)n2)cc1 (stereo not drawn),0.72
6,CCCCCCCCc1ccc(-c2c[nH]c([C@@H](N)COP(=O)(O)O)n2)cc1,0.79

# Biological target: T2, Sphingosine 1-phosphate receptor 5
# Experiment: Maximal efficacy against sphingosine 1-phosphate receptor 5 determined by a [c-35S]-GTP binding assay
row,SMILES,Emax
1,CCCCCCCCc1ccc(-c2c[nH]c([C@@H](N)COP(O)(O)=S)n2)cc1,0.82
2,CCCCCCCCc1ccc(-c2c[nH]c(C(C)(N)COP(O)(O)=S)n2)cc1 (stereo not drawn),0.6
3,CCCCCCCCc1ccc(-c2c[nH]c([C@H](N)CO)n2)cc1,0.83
4,CCCCCCCCc1ccc(-c2c[nH]c(C(N)(CO)CO)n2)cc1,0.48
5,CCCCCCCCc1ccc(-c2c[nH]c(C(N)(CO)COP(O)(O)=S)n2)cc1 (stereo not drawn),0.56
6,CCCCCCCCc1ccc(-c2c[nH]c([C@@H](N)COP(=O)(O)O)n2)cc1,0.69

# Biological target: T3, Sphingosine 1-phosphate receptor 1
# Experiment: Maximal efficacy against sphingosine-1-phosphate receptor 1 determined by a [c-35S]-GTP binding assay
row,SMILES,Emax
1,CCCCCCCCc1ccc(-c2c[nH]c([C@@H](N)COP(O)(O)=S)n2)cc1,0.67
2,CCCCCCCCc1ccc(-c2c[nH]c(C(C)(N)COP(O)(O)=S)n2)cc1 (stereo not drawn),0.87
3,CCCCCCCCc1ccc(-c2c[nH]c([C@H](N)CO)n2)cc1,0.98
4,CCCCCCCCc1ccc(-c2c[nH]c(C(N)(CO)CO)n2)cc1,0.66
5,CCCCCCCCc1ccc(-c2c[nH]c(C(N)(CO)COP(O)(O)=S)n2)cc1 (stereo not drawn),0.66
6,CCCCCCCCc1ccc(-c2c[nH]c([C@@H](N)COP(=O)(O)O)n2)cc1,0.69

# Biological target: T4, Sphingosine 1-phosphate receptor 3
# Experiment: Maximal efficacy against sphingosine 1-phosphate receptor 3 determined by a [c-35S]-GTP binding assay
row,SMILES,Emax
1,CCCCCCCCc1ccc(-c2c[nH]c([C@@H](N)COP(O)(O)=S)n2)cc1,0.45
2,CCCCCCCCc1ccc(-c2c[nH]c(C(C)(N)COP(O)(O)=S)n2)cc1 (stereo not drawn),0.44
3,CCCCCCCCc1ccc(-c2c[nH]c([C@H](N)CO)n2)cc1,0.38
4,CCCCCCCCc1ccc(-c2c[nH]c(C(N)(CO)CO)n2)cc1,0
5,CCCCCCCCc1ccc(-c2c[nH]c(C(N)(CO)COP(O)(O)=S)n2)cc1 (stereo not drawn),0.68
6,CCCCCCCCc1ccc(-c2c[nH]c([C@@H](N)COP(=O)(O)O)n2)cc1,0.42

# Biological target: T1, Sphingosine 1-phosphate receptor 2
# Experiment: Maximal efficacy against sphingosine 1-phosphate receptor 2 determined by a [c-35S]-GTP binding assay
row,SMILES,Emax
1,CCCCCCCCc1ccc(-c2c[nH]c([C@@H](N)COP(O)(O)=S)n2)cc1,0
2,CCCCCCCCc1ccc(-c2c[nH]c(C(C)(N)COP(O)(O)=S)n2)cc1 (stereo not drawn),0
3,CCCCCCCCc1ccc(-c2c[nH]c([C@H](N)CO)n2)cc1,0
4,CCCCCCCCc1ccc(-c2c[nH]c(C(N)(CO)CO)n2)cc1,0
5,CCCCCCCCc1ccc(-c2c[nH]c(C(N)(CO)COP(O)(O)=S)n2)cc1 (stereo not drawn),0

# Biological target: T6, Sphingosine 1-phosphate receptor 4 (Homo sapiens, UniProt O95977)
# T6 sequence (O95977 whole entry): T5 sequence (whole entry)
# Experiment: Effective concentration against sphingosine 1-phosphate receptor 4 determined by a [c-35S]-GTP binding assay
row,SMILES,EC50
1,CCCCCCCCc1ccc(-c2c[nH]c([C@@H](N)COP(O)(O)=S)n2)cc1,0.19 µM
2,CCCCCCCCc1ccc(-c2c[nH]c(C(C)(N)COP(O)(O)=S)n2)cc1 (stereo not drawn),0.17 µM
3,CCCCCCCCc1ccc(-c2c[nH]c([C@H](N)CO)n2)cc1,7.4 µM
4,CCCCCCCCc1ccc(-c2c[nH]c(C(N)(CO)CO)n2)cc1,0.66 µM
5,CCCCCCCCc1ccc(-c2c[nH]c(C(N)(CO)COP(O)(O)=S)n2)cc1 (stereo not drawn),0.089 µM
6,CCCCCCCCc1ccc(-c2c[nH]c([C@@H](N)COP(=O)(O)O)n2)cc1,0.15 µM
